Experimental data: paper PMC4230938, “A High-Yield Co-Expression System for the Purification of an Intact Drs2p-Cdc50p Lipid Flippase Complex, Critically Dependent on and Stabilized by Phosphatidylinositol-4-Phosphate” (PLoS ONE, 2014)

Legend:
Drs2p-Cdc50p complex [1] = biological target: T1, Drs2p-Cdc50p complex (Saccharomyces cerevisiae, UniProt P39524); experiment: ATPase activity of complex purified without PS; format: biochemical; conditions: lipid stimulation at 0.05 mg/mL; 0.025 mg/mL PI4P, 1 mM Mg-ATP, 1 mg/mL DDM, pH 7, 30 °C
T1 construct: gene DRS2; full-length, co-expressed in yeast W303.1b/GAL4; N-terminal Bad tag (Drs2p) and His10 tag (Cdc50p) cut by TEV, Gly plus four-Gly linker left; 154,050 Da Drs2p, 45,136 Da unglycosylated Cdc50p; glycosylated; 1:1 complex in DDM; with Cell division control protein 50
T1 sequence (P39524 1-1355): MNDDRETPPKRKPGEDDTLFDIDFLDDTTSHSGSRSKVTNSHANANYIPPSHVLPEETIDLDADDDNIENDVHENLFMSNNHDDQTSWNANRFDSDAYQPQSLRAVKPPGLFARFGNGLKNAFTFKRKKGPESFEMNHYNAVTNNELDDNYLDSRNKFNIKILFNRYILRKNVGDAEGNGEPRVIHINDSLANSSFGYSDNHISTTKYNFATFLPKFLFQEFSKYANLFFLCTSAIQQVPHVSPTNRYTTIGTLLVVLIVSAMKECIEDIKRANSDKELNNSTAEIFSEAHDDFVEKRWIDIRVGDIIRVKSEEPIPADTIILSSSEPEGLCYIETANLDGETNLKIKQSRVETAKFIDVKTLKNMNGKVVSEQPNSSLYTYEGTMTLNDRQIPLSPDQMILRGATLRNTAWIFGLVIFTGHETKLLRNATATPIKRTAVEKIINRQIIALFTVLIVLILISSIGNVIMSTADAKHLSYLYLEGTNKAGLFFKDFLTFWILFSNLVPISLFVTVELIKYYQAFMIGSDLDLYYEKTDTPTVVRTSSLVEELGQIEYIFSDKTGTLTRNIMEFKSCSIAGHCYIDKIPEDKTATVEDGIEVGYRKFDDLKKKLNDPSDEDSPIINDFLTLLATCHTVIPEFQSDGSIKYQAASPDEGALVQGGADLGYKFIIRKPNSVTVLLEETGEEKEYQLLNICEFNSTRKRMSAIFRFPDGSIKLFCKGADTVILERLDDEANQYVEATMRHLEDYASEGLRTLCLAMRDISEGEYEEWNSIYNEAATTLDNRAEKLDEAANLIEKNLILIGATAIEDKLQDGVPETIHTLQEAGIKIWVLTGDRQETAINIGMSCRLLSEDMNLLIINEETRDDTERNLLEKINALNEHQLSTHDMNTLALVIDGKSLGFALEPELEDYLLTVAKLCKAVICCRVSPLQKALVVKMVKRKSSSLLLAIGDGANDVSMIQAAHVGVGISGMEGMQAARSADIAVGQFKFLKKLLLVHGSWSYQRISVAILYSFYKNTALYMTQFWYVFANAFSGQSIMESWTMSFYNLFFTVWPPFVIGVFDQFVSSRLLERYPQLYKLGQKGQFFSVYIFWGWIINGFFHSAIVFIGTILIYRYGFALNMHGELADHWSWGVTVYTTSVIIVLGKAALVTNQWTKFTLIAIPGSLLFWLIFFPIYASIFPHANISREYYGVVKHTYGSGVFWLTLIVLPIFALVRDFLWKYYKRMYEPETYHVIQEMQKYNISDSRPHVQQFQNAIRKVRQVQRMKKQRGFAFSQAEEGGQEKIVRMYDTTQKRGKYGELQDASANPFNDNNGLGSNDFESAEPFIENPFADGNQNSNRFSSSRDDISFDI
T1 sequence (P25656 1-391 partner): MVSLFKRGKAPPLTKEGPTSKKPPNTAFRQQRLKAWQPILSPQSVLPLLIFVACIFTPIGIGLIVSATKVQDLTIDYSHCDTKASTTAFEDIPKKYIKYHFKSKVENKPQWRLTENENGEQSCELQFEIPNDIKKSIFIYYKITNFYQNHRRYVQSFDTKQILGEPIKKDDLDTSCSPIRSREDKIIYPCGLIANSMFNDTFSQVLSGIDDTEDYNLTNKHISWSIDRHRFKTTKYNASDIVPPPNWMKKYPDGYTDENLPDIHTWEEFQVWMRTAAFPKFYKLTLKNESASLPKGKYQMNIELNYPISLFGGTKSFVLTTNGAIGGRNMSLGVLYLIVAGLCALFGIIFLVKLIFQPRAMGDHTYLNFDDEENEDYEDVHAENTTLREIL

Drs2p-Cdc50p complex [2] = biological target: T1, Drs2p-Cdc50p complex; experiment: ATPase activity, colorimetric Pi release; format: biochemical; conditions: inhibitor; 1 h pre-incubation on ice; 1 mM ATP, 0.025 mg/mL PI4P, 0.05 mg/mL POPS, 1 mg/mL DDM, pH 7, 30 °C; printed only as a range
Drs2p-Cdc50p complex [3] = biological target: T1, Drs2p-Cdc50p complex; experiment: ATPase activity, colorimetric Pi release; format: biochemical; conditions: transported lipid stimulating ATPase; 0.025 mg/mL PI4P, 1 mM Mg-ATP, 1 mg/mL DDM, pH 7, 30 °C; residual PS from purification present; read-out: [PS]1/2
[4] = biological target: T2, Drs2p, tag-free after TEV cleavage (S. cerevisiae, UniProt P39524 1-1355); experiment: in-gel fluorescence of haloalkane-modified Trp residues after SDS-PAGE; band intensities of Drs2p and Cdc50p in the streptavidin-purified complex, 4-20% gradient gel; conditions: both partners purified
T2 construct: Drs2p, yeast P4-ATPase; theoretical mass of the recombinant protein 154,050 Da; also called purified Drs2p; source: S. cerevisiae W303.1b/GAL4, co-expressed with Cdc50p, purified (streptavidin-Sepharose, TEV elution, Ni2+-TED; SEC); not shown: Bad (Biotin Acceptor Domain), N-terminal, cleaved
T2 sequence (looked up): T1 sequence (P39524 1-1355)

[5] = substrate: Nc1ncnc2c1ncn2[C@@H]1O[C@H](COP(=O)(O)OP(=O)(O)OP(=O)(O)O)[C@@H](O)[C@H]1O; experiment: ATPase activity, colorimetric Pi release; format: biochemical, Saccharomyces cerevisiae; conditions: 0.025 mg/mL PI4P, 0.05 mg/mL POPS, 1 mg/mL DDM, ATP-regenerating system, pH 7, 30 °C

CCCCCCCCCCCCCC(=O)OC[C@H](COP(=O)(O)OC[C@H](N)C(=O)O)OC(=O)CCCCCCCCCCCCC [DMPS, 1,2-dimyristoyl-sn-glycero-3-phospho-L-serine]
ATPase activity of complex purified without PS (Drs2p-Cdc50p complex [1]): PS had the largest stimulating effect, irrespective of its fatty acyl chain (POPS or DMPS)

[O]=[V]([OH])([OH])[OH] [orthovanadate]
KI (Drs2p-Cdc50p complex [2]): vanadate had a rather poor KI, in the millimolar range (Figure 7E)

CCCCCCCC/C=C\CCCCCCCC(=O)O[C@H](COC(=O)CCCCCCCCCCCCCCC)COP(=O)(O)OC[C@H](N)C(=O)O [POPS, 1-palmitoyl-2-oleoyl-sn-glycero-3-phospho-L-serine]
Km (Drs2p-Cdc50p complex [3]): > 26.2 µM

CCCCCCCC/C=C\CCCCCCCC(=O)O[C@H](COC(=O)CCCCCCCCCCCCCCC)COP(=O)(O)OCCN [POPE, 1-palmitoyl-2-oleoyl-sn-glycero-3-phosphoethanolamine]
ATPase activity of complex purified without PS (Drs2p-Cdc50p complex [1]): POPC only had a slightly stimulating effect, POPE had a larger one

B1: Cdc50p, tag-free after TEV cleavage (natural protein, S. cerevisiae, UniProt P25656 1-391, looked up)
chain: T1 sequence (P25656 1-391 partner)
modifications: glycosylated
notes: Cdc50p, accessory subunit of Drs2p; recombinant non-glycosylated mass 45,136 Da including the linker glycines; also called glycosylated Cdc50p; source: S. cerevisiae W303.1b/GAL4, co-expressed with Drs2p, purified with it (streptavidin-Sepharose, TEV elution, Ni2+-TED; SEC); not shown: His10, N-terminal, cleaved
stoichiometry N [4]: 1 Drs2p:Cdc50p (mol:mol)

B2: Drs2p-Cdc50p complex (Saccharomyces cerevisiae S288C) (protein)
chain: T1 sequence (P39524 1-1355)
notes: full-length, co-expressed in yeast W303.1b/GAL4; N-terminal Bad tag (Drs2p) and His10 tag (Cdc50p) cut by TEV, Gly plus four-Gly linker left; 154,050 Da Drs2p, 45,136 Da unglycosylated Cdc50p; glycosylated; 1:1 complex in DDM; with Cell division control protein 50
K0.5 [5]: 10 µM
